Measured values: patent US20150132328A1 (priority 2011, published 2015)
Like-named read-outs stand apart in the source and are kept apart here. Marks after values point to notes of the source that are not given here.

Key:
[1] = test system: newborn rat thymocytes
Source text: It was used an octapeptide with similar weight for the elaboration of the complex, to which was just the proline (4) and Glycine (5) original amino acids were interchanged by proline (4) and Glycine (5) resulting as […].

[2] = test system: human leukocytes; conditions: for Phagocytosis: peptide 10^-10M + zinc 10^-9M
Source text: In order to test a different effect of the proliferation, we decided to investigate the effect of peptide+zinc versus peptide+zinc+DTPA on human leukocytes phagocytosis.

[3] = test system: antibodies vs. LR.4 cells
Method: This was performed by flow cytometry. LR.4 cells were washed and incubated in serum dilutions obtained from mice, using as second antibody an antibody vs. mouse conjugated to fluoresce.

[4] = test system: LR.4 lymphoma; conditions: LR.4 + IMMP
Source text: Thymus and spleen were studied since they correspond to lymphatic organs, liver which corresponds to the main organ to which the metastases of abdominal tumors and kidney are directed are directed by their high blood irrigation.

[5] = test system: BMK-16myc cells tumor; conditions: for Metastases (animals with detected metastases/total number of animals): Tumor + IMMP
Source text: We used BMK-16myc cells which are baby mouse kidney cells immortalized with genes of 16 protein of the human papilloma virus (HPV) and the myc gene, which grow in mouse, are highly invasive and produce metastases rapidly. One million cells were implanted subcutaneously in the back of each mouse. […] Subsequently, the animals were sacrificed and the tumors under the back skin as well as thymus, spleen, liver and kidney were collected for histopathological examination.

[6] = test system: rats with rheumatoid arthritis
Source text: This produces that in the third week appears edema of the cephalic and caudal extremities, which can be measured with a vernier. Inflammation is due to the presence of the own autoimmune response against […] of the rat.

[7] = test system: newborn rat thymocytes; conditions: With A
[8] = test system: antibodies against Newcastle; conditions: 10 ng/dose with Newcastle vaccine
[9] = test system: stress model induced in mice; conditions: for Corticosterone / IL-1: Table 22
[10] = test system: lymphoma LR.4
[11] = test system: platelets; conditions: three dosages
[12] = STRESS + IMMP, 10 ng/dose i.p., Table 21

## Peptide LEDGPKFL + Zinc [IMMP]
[1]; 10^-10 M, With-A
  Increase of thymocytes proliferation: 35%
[1]; 10^−6 (918 ng/mL), 24 hours
  Proliferation (% with respect to the control): 106.6 ± 3.0%
[1]; 10^−6 (918 ng/mL), Con A 50 pg/mL
  Proliferation (% with respect to the control): 126.6 ± 3.0%
[1]; 10^−7 (91.8 ng/mL), 24 hours
  Proliferation (% with respect to the control): 125.1 ± 2.6 %
[1]; 10^−7 (91.8 ng/mL), Con A 50 pg/mL
  Proliferation (% with respect to the control): 125.1 ± 2.6 %
[1]; 10^−7.5 (9.58 ng/mL), Con A 50 pg/mL
  Proliferation (% with respect to the control): 127.4 ± 3.0 %
[1]; 10^−8 (9.18 ng/mL), 24 hours
  Proliferation (% with respect to the control): 120.3 ± 2.7 %
[1]; 10^−8 (9.18 ng/mL), Con A 50 pg/mL
  Proliferation (% with respect to the control): 128.3 ± 2.7 %
[1]; 10^−9 (0.91 ng/mL), 24 hours
  Proliferation (% with respect to the control): 123.3 ± 3.4 %
[1]; 10^−9 (0.91 ng/mL), Con A 50 pg/mL
  Proliferation (% with respect to the control): 133.3 ± 3.4 %
[1]; 10^−10 (0.09 ng/mL), 24 hours
  Proliferation (% with respect to the control): 135.6 ± 3.1 %
[1]; 10^−10 (0.09 ng/mL), Con A 50 pg/mL
  Proliferation (% with respect to the control): 135.6 ± 3.1 %
[1]; 10^−11 (0.009 ng/mL), 24 hours
  Proliferation (% with respect to the control): 130.5 ± 1.4 %
[1]; 10^−11 (0.009 ng/mL), Con A 50 pg/mL
  Proliferation (% with respect to the control): 130.5 ± 1.4 %
[1]; 10^−12 (0.0009 ng/mL), Con A 50 pg/mL
  Proliferation (% with respect to the control): 120.3 ± 3.2 %
[2]; 24 h
  Phagocytosis: 56 ± 2 arbitrary fluorescence intensity units
[2]; 48 h
  Phagocytosis: 185 ± 18 arbitrary fluorescence intensity units
[2]; 48 hours
  Increase of phagocytosis: about four times
[3]; IMMP alone, no tumor, serum dilution 0
  % of LR.4 cells stained with the serum antibody: 0%
[3]; IMMP alone, no tumor, serum dilution 1:2
  % of LR.4 cells stained with the serum antibody: 0%
[3]; IMMP alone, no tumor, serum dilution 1:4
  % of LR.4 cells stained with the serum antibody: 0%
[3]; IMMP alone, no tumor, serum dilution 1:8
  % of LR.4 cells stained with the serum antibody: 0%
[3]; IMMP alone, no tumor, serum dilution 1:16
  % of LR.4 cells stained with the serum antibody: 0%
[3]; IMMP alone, no tumor, serum dilution 1:32
  % of LR.4 cells stained with the serum antibody: 0%
[3]; IMMP alone, no tumor, serum dilution 1:64
  % of LR.4 cells stained with the serum antibody: 0%
[3]; LR.4 + IMMP, serum dilution 0
  % of LR.4 cells stained with the serum antibody: 100%
[3]; LR.4 + IMMP, serum dilution 1:2
  % of LR.4 cells stained with the serum antibody: 100%
[3]; LR.4 + IMMP, serum dilution 1:4
  % of LR.4 cells stained with the serum antibody: 100%
[3]; LR.4 + IMMP, serum dilution 1:8
  % of LR.4 cells stained with the serum antibody: 100%
[3]; LR.4 + IMMP, serum dilution 1:16
  % of LR.4 cells stained with the serum antibody: 83%
[3]; LR.4 + IMMP, serum dilution 1:32
  % of LR.4 cells stained with the serum antibody: 40%
[3]; LR.4 + IMMP, serum dilution 1:64
  % of LR.4 cells stained with the serum antibody: 15%
[3]; mouse, in vivo
  Antibodies vs tumor relative to untreated group: four times more antibodies
[4]; Kidney
  Metastases (animals with metastases detected/total number of animals): 0/5
[4]; Liver
  Metastases (animals with metastases detected/total number of animals): 0/5
[4]; Spleen
  Metastases (animals with metastases detected/total number of animals): 0/5
[4]; Thymus
  Metastases (animals with metastases detected/total number of animals): 0/5
[5]; Kidney
  Metastases (animals with detected metastases/total number of animals): 0/5
[5]; Liver
  Metastases (animals with detected metastases/total number of animals): 3/5
[5]; Spleen, 200 ng Kg i.p., 10 doses
  Metastases (animals with detected metastases/total number of animals): 0/5
[5]; Thymus
  Metastases (animals with detected metastases/total number of animals): 0/5
[5]; mouse, in vivo
  Animals in which development of metastasis was reduced: 40%
[5]; tendency to smaller tumors
  Tumor size vs untreated group: not statistically significant
[5]; tumor + IMMP (100% untreated)
  Animals with metastases in liver: 60%
[6]; AR + treatment
  Number of rats showing Inflammation 0%: 3
  Number of rats showing Inflammation 50%: 3
  Number of rats showing Inflammation 100% of palmar and plantar pad: 6
[6]; IMMP alone, no arthritis
  Number of rats showing Inflammation 0%: 0
  Number of rats showing Inflammation 50%: 0
  Number of rats showing Inflammation 100% of palmar and plantar pad: 0
[6]; rat, in vivo
  Animals with inflammation reduced at 50%: 25%
  Animals with inflammation reduced at 100%: 25%
[7]; [M] 10^−6
  Cells Percent CD4: 15.1 ± 2.5%
  Cells Percent CD8: 5.3 ± 1.5%
  Cells Percent DN: 6.6 ± 1.7%
  Cells Percent DP: 72.2 ± 1.5%
[7]; [M] 10^−7
  Cells Percent CD4: 14.2 ± 3.7%
  Cells Percent CD8: 6.0 ± 2.2 %
  Cells Percent DN: 3.7 ± 0.2%
  Cells Percent DP: 73.3 ± 2.6%
[7]; [M] 10^−8
  Cells Percent CD4: 13.9 ± 2.6 %
  Cells Percent CD8: 6.1 ± 0.2 %
  Cells Percent DN: 7.1 ± 2.8%
  Cells Percent DP: 74.8 ± 0.7 %
[7]; [M] 10^−9
  Cells Percent CD4: 17.7 ± 1.9 %
  Cells Percent CD8: 4.8 ± 1.9%
  Cells Percent DN: 7.0 ± 1.1 %
  Cells Percent DP: 70.5 ± 1.2 %
[7]; [M] 10^−10
  Cells Percent CD4: 16.7 ± 1.0 %
  Cells Percent CD8: 4.7 ± 2.2%
  Cells Percent DN: 5.1 ± 1.9%
  Cells Percent DP: 73.3 ± 3.0%
[7]; [M] 10^−11
  Cells Percent CD4: 15.4 ± 0.8 %
  Cells Percent CD8: 6.0 ± 1.7%
  Cells Percent DN: 5.1 ± 2.0%
  Cells Percent DP: 74.8 ± 5.4%
[7]; [M] 10^−12
  Cells Percent CD4: 16.7 ± 0.9 %
  Cells Percent CD8: 6.0 ± 0.5 %
  Cells Percent DN: 6.4 ± 0.4%
  Cells Percent DP: 71.8 ± 3.5 %
[8]; Day 13
  Antibody production against Newcastle (number of times the serum could be diluted with 100% of the response): 0
[8]; Day 23
  Antibody production against Newcastle (number of times the serum could be diluted with 100% of the response): 18.0
[8]; Day 30
  Antibody production against Newcastle (number of times the serum could be diluted with 100% of the response): 64.5
[8]; Day 37
  Antibody production against Newcastle (number of times the serum could be diluted with 100% of the response): 60.2
[9]; IMMP alone
  Corticosterone: 33.5 ± 2.1 ng/dL
  IL-1: 6.9 ± 0.8 ng/dL
[9]; IMMP alone, Table 22 (title: C57BL/6J mice with lymphoma LR.4)
  WEIGHT: 13.8 ± 1.2 g
[9]; [12]
  IL-1 serum level: 6.9 ± 0.8 ng/dL
  WEIGHT: 13.8 ± 1.2 g
  corticosterone serum level: 33.5 ± 2.1 ng/dL
[9]; STRESS + IMMP
  Corticosterone: 43.1 ± 3.8 ng/dL
  IL-1: 18.1 ± 2.0 ng/dL
[9]; STRESS + IMMP, Table 22 (title: C57BL/6J mice with lymphoma LR.4)
  WEIGHT: 13.1 ± 0.9 g
[9]; stress + IMMP (36% without)
  Body weight loss: 11%
[9]; stress + IMMP (70% without)
  Increase in corticosteroid production induced by stress: 38%
[9]; stress + IMMP (three times without)
  Increase of plasma IL-1 over control: increased only once
[10]; 10 doses for two weeks, from the fourth week
  Reduction of tumor growth at long term: about 50%
[10]; IMMP alone, no tumor, week 0
  Body weight (control percent): 100 ± 3%
[10]; IMMP alone, no tumor, week 8
  Body weight (control percent): 101 ± 3%
[10]; IMMP alone, no tumor, week 12
  Body weight (control percent): 99 ± 4%
[10]; IMMP alone, no tumor, week 16
  Body weight (control percent): 101 ± 4%
[10]; IMMP alone, no tumor, week 20
  Body weight (control percent): 102 ± 3%
[10]; IMMP alone, no tumor, week 24
  Body weight (control percent): 100 ± 3%
[10]; IMMP alone, no tumor, week 28
  Body weight (control percent): 100 ± 2%
[10]; IMMP alone, no tumor, week 32
  Body weight (control percent): 100 ± 5%
[10]; IMMP alone, no tumor, week ±4
  Body weight (control percent): 102 ± 4%
[10]; LR.4 + IMMP, week 0, 200 ng/Kg i.p., ten doses
  Body weight (control percent): 100 ± 2%
[10]; LR.4 + IMMP, week 8
  Body weight (control percent): 106 ± 3 %
[10]; LR.4 + IMMP, week 12
  Body weight (control percent): 118 ± 7 %
[10]; LR.4 + IMMP, week 16
  Body weight (control percent): 120 ± 9 %
[10]; LR.4 + IMMP, week 20
  Body weight (control percent): 119 ± 9 %
[10]; LR.4 + IMMP, week 24
  Body weight (control percent): 120 ± 8 %
[10]; LR.4 + IMMP, week 28
  Body weight (control percent): 119 ± 11 %
[10]; LR.4 + IMMP, week 32
  Body weight (control percent): 120 ± 13 %
[10]; LR.4 + IMMP, week ±4
  Body weight (control percent): 115 ± 5 %
[10]; tumor + IMMP, thirty day (untreated 25% higher)
  Body weight relative to control: almost equal to that of the control
[11]; CC14 + IMMP, pretreatment 50 ng/kg each third day
  Platelets: 886 + 110^# 10^3/μL
[11]; IMMP alone, no CCI4, 50 ng/kg each third day
  Platelets: 1560 + 248* 10^3/μL
